Legend:
[1] = target: T1, Norepinephrine Transporter (NET) (Homo sapiens, UniProt P23975); experiment: Radioligand binding assay, [125I] RTI-55, Norepinephrine Transporter; settings: human recombinant, MDCK cell membranes; [125I] RTI-55 0.20 nM; 3 hours at 4° C.; read-out: ˜IC50, inhibition of binding to NET
T1 construct: expressed in transfected cells; host or cells: MDCK cells (membrane preparations)
Protocol: (§1) Inhibition of binding to the Dopamine Transporter (DAT) and Norepinephrine Transporter (NET) by MSI-1436 was determined in radioligand binding assays using human recombinant proteins expressed in CHO-K1 or MDCK cells, respectively. Membrane preparations were incubated with [^125I] RTI-55 (0.15 nM for DAT, 0.20 nM for NET) in the presence of 1436 (0.005 μM to 50 μM) for 3 hours at 4° C. IC50 values were determined as in PTP1B assays (See Table 2).

TCPTP = target: T2, TCPTP (Homo sapiens, UniProt P17706); experiment: TCPTP enzyme inhibition assay (DiFMUP substrate, spectrofluorimetric); format: biochemical
T2 construct: MDS Pharma (contract assay); host or cells: E. coli
T2 sequence (P17706 1-415): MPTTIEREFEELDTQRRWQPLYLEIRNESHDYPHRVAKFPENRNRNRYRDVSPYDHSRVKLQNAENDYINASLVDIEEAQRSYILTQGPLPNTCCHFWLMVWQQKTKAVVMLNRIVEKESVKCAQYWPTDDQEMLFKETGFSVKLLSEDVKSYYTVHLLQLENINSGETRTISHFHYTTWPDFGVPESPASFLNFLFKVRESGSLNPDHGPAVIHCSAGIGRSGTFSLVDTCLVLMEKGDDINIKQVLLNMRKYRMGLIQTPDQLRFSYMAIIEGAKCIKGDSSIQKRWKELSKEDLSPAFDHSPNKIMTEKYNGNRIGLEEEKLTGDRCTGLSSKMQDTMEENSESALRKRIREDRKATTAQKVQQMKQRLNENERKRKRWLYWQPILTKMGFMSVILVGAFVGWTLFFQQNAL
Protocol: In the PTP1B assay, phosphatase activity was quantitated through ELISA analysis of remaining tyrosine phosphopeptide after 30-minute incubations at room temperature with various concentrations of 1436 (0.05 μM to […]). […] The TCPTP assay required a 15-minute preincubation of enzyme and substrate at 37° C. followed by 60-minute incubations at 37° C. with various concentrations of 1436 (0.5 μM to 50 μM). TCPTP activity was assessed by spectrofluorimetric quantitation of DiFMU.

HepG2 cells = experiment: Insulin receptor-beta phosphorylation in HepG2 cells (immunoprecipitation, Western blot); format: cell-based
Protocol: HepG2 cells (immortalized hepatocyte cells) were treated with 10 nM insulin, […], neither, or both for either 30 minutes or 3 hours in vitro. […] No difference in the amounts of insulin receptor-beta (IR-beta) was noted (Panel A). […] This effect was slightly diminished at 3 hours.

[2] = tested on: male AKR/J mice on 60% fat diet; experiment: Histology of adipose tissue in mice on 60% fat diet; format: in vivo; settings: mouse on 60% fat diet; i.p. q7dx4, 10 then 5 mg/kg
Description: (§2) Mice and Study Design. At weaning, male AKR/J mice from Jackson Laboratories (Bar Harbor, Me., USA) were placed on a 10%, 45%, or 60% fat kcal diet (Research Diets, Inc., New Brunswick, N.J., USA). Mice were weighed weekly and treatment began after 13-14 weeks of access to the different fat diets. Immediately before the start of treatment, mice from all three diets were randomly subdivided further into three groups within the same fat composition diet with an even weight distribution. All mice were dosed (i.p. route) on a q7dx4 schedule, where the first dose of 1436 was 10 mg/kg and all remaining doses were 5 mg/kg. Saline-treated animals were administered 10 mL/kg. Pair-fed animals were dosed with saline (10 mL/kg) on the same q7dx4 schedule on a 1-day stagger from the other groups. As a measure of food consumption, remaining food was weighed daily. Pair-fed groups were allotted the exact amount of food consumed by 1436-treated groups in the 24 hours prior. All procedures involving mice were performed in accordance with protocols approved by the Institutional Animal Care and Use Committee.
Histology. Intrascapular brown adipose tissue was fixed in 10% zinc formalin (Fisher Scientific, Kalamazoo, Mich., USA) for 48 hours and transferred to 70% EtOH. Tissues were embedded in paraffin and […] sections were applied to glass microscope slides. […]

[3] = tested on: male AKR/J mice on 10%, 45% or 60% fat kcal diet; experiment: Body composition of diet induced obese mice at end of study; format: in vivo; settings: i.p. q7dx4, 10 then 5 mg/kg
Description: as §2, with “Pair-fed groups were allotted the exact amount of food consumed by 1436-treated groups in the 24 hours prior. All procedures involving mice were performed in accordance with protocols approved by the Institutional Animal Care and Use Committee.” left out
Body Composition. Body composition (percent moisture, fat, protein and ash) was determined according to methods described with modifications (Official Methods of Analysis of AOAC INTERNATIONAL, 2000). […] Protein was determined through the combustion method for nitrogen detection and a factor of 6.25 was used to convert percent nitrogen to percent protein. To determine ash, samples were ignited at 550° C. for 5 hours and quantified gravimetrically.

[4] = tested on: male AKR/J mice on 10%, 45% or 60% fat kcal diet; experiment: Induction of weight loss in diet induced obese mice; format: in vivo
Description: as §2

ob/ob mice = experiment: Ex vivo liver IRS-1 phosphorylation in ob/ob mice (effect on PTP1B); settings: single dose 10 mg/kg i.p., 24 hours after treatment, livers harvested 2 min after portal vein insulin
Protocol: To examine the effect of MSI-1436 on PTP1B ex vivo, ob/ob mice were treated with either vehicle, MSI-1436 (single dose, 10 mg/kg, i.p.) or pair-fed control mice (n=4 per group). Twenty-four hours after the single treatment, mice were anesthetized and portal vein was exposed via an incision. Insulin or phosphate buffered saline (PBS) was injected into the portal vein and livers were harvested 2 min after the injection. Livers were lysed and lysates were immunoprecipitated with anti-insulin receptor substrate-1 (IRS-1) and then blotted for phosphotyrosine with the resultant blots representing phosphorylated insulin receptor substrate-1 (P-IRS-1). The blots were analyzed using imaging software.

[5] = target: T3, MDCK cells expressing norepinephrine transporters (Homo sapiens, UniProt P23975); experiment: Cellular uptake of [3H] Norepinephrine; format: cell-based
T3 construct: expressed in transfected cells; host or cells: MDCK cells
T3 sequence (P23975 whole entry): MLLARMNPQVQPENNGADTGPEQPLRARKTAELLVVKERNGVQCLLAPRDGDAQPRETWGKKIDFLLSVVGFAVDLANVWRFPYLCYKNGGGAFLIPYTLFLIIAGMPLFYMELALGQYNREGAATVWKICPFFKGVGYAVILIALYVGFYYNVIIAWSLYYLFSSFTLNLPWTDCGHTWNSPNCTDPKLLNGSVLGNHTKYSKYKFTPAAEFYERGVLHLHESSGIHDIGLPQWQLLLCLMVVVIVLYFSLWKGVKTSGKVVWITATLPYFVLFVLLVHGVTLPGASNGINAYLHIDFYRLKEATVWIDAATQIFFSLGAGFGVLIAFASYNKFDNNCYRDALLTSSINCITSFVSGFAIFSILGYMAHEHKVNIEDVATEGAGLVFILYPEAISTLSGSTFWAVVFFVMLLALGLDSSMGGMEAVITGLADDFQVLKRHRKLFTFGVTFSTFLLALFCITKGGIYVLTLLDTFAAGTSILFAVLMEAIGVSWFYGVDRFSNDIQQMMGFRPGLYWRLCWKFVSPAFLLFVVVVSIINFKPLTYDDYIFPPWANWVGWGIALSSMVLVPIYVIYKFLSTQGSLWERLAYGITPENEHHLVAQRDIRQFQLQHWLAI
Protocol: (§3) After 10-minute incubations of the cells with radioactive ligands in the presence of compound at room temperature, quantitation of [^3H] Dopamine or [^3H] […] Significance criteria for antagonism was met if there was ≧50% inhibition of uptake as compared to the induced response of nomifensine (DAT) or desipramine (NET).

[6] = target: T4, Dopamine Transporter (DAT) (Homo sapiens, UniProt Q01959); experiment: Radioligand binding assay, [125I] RTI-55, Dopamine Transporter; settings: human recombinant, CHO-K1 cell membranes; [125I] RTI-55 0.15 nM; 3 hours at 4° C.; read-out: ˜IC50, inhibition of binding to DAT
T4 construct: expressed in transfected cells; host or cells: CHO-K1 cells (membrane preparations)
T4 sequence (Q01959 whole entry): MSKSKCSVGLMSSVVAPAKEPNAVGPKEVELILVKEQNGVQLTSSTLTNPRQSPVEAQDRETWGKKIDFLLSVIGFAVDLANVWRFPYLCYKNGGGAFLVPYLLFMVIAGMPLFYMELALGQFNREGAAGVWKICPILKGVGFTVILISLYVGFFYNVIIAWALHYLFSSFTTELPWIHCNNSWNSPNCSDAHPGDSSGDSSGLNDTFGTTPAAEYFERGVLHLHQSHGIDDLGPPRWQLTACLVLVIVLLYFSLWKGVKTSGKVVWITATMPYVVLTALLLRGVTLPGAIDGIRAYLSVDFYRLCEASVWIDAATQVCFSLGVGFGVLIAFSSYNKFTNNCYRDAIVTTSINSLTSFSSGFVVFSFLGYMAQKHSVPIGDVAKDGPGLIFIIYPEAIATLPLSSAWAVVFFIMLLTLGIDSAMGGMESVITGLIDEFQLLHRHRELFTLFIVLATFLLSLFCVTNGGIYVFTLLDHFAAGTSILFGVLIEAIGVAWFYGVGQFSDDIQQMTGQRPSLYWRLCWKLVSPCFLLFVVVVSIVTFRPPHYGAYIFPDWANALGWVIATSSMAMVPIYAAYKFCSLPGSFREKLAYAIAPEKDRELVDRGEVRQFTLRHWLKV
Protocol: as §1

[7] = target: T5, CHO-K1 cells expressing dopamine transporters (Homo sapiens, UniProt Q01959); experiment: Cellular uptake of [3H] Dopamine; format: cell-based
T5 construct: expressed in transfected cells; host or cells: CHO-K1 cells
T5 sequence (Q01959 whole entry): as above
Protocol: as §3

T1 sequence (P23975 whole entry): as the sequence (P23975 whole entry) above

**Q.** For `CC(C)[C@@H](CC[C@@H](C)[C@H]1CC[C@H]2[C@@H]3[C@H](O)C[C@H]4C[C@@H](NCCCNCCCCNCCCN)CC[C@]4(C)[C@H]3CC[C@]12C)OS(=O)(=O)O` [compound 1436], which IC50 [1] is on record?
**A.** 3240 nM

**Q.** And the “inhibition of TCPTP at the concentrations tested” value (TCPTP; 1436 0.5 μM to 50 μM)?
**A.** no inhibition

**Q.** And the IC50 (TCPTP; human recombinant protein expressed in E. Coli, DiFMUP 10 μM, 60-minute incubation at 37° C., estimated)?
**A.** > 50000 nM

**Q.** And the “IR-beta phosphorylation, insulin plus MSI-1436 versus insulin alone” value (HepG2 cells; 10 nM insulin and 10 µM MSI-1436, 30 minutes)?
**A.** increased IR-beta phosphorylation

**Q.** What about the “IR-beta phosphorylation, MSI-1436 alone” value (HepG2 cells; 10 µM MSI-1436 without insulin, 30 minutes or 3 hours) of the same molecule?
**A.** did not induce phosphorylation

**Q.** What about the “amount of fat in brown adipose tissue (BAT), histology” value [2] of the same molecule?
**A.** lost all of the fat gained by the 60% diet

**Q.** And the “amount of fat in white adipose tissue (WAT), histology” value [2]?
**A.** lost all of the fat gained by the 60% diet

**Q.** And the “% body fat (body composition at end of study)” value ([3]; all diets (10%, 45%, 60% fat))?
**A.** lose significant % body fat

**Q.** And the “loss of body fat versus pair-fed groups” value [3]?
**A.** trend for greater loss of body fat

**Q.** And the “body weight after treatment” value ([4]; 10%, 45% and 60% fat diet groups, i.p. q7dx4, first dose 10 mg/kg, remaining 5 mg/kg, three weeks)?
**A.** lost weight

**Q.** And the “effect on weight loss versus pair-fed group” value ([4]; i.p. q7dx4, 10 then 5 mg/kg, greatest in 60% fat group (p value 0.013))?
**A.** greater than the effect of diet alone

**Q.** And the “insulin-induced phosphorylation of IRS-1 in liver” value (ob/ob mice)?
**A.** enhanced the insulin-induced phosphorylation of IRS-1

**Q.** And the IC50 ([5]; MDCK cells, 10-minute incubation at room temperature, read-out: IC50, inhibition of Norepinephrine uptake)?
**A.** 718 nM

**Q.** And the inhibition at 0.05 µM ([5]; MDCK, 1436 0.05 μM)?
**A.** 22%

**Q.** And the inhibition at 0.25 µM ([5]; MDCK, 1436 0.25 μM)?
**A.** 26%

**Q.** And the inhibition at 0.5 µM ([5]; MDCK, 1436 0.5 μM)?
**A.** 33%

**Q.** And the inhibition at 2.5 µM ([5]; MDCK, 1436 2.5 μM)?
**A.** 78%

**Q.** And the inhibition at 5 µM ([5]; MDCK, 1436 5.0 μM)?
**A.** 95%

**Q.** And the IC50 [6]?
**A.** 1740 nM

**Q.** And the inhibition at 0.05 µM ([7]; CHO-K1, 1436 0.05 μM)?
**A.** 1%

**Q.** And the inhibition at 0.25 µM ([7]; CHO-K1, 1436 0.25 μM)?
**A.** 39%

**Q.** And the inhibition at 0.5 µM ([7]; CHO-K1, 1436 0.5 μM)?
**A.** 57%

**Q.** And the inhibition at 2.5 µM ([7]; CHO-K1, 1436 2.5 μM)?
**A.** 81%

**Q.** What about the inhibition at 5 µM ([7]; CHO-K1, 1436 5.0 μM) of the same molecule?
**A.** 94%

**Q.** What about the IC50 ([7]; CHO-K1 cells, 10-minute incubation at room temperature, read-out: IC50, inhibition of Dopamine uptake) of the same molecule?
**A.** 422 nM
